# Source: PubChem BioAssay (NCI)
#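 Values below derive from 48-hour exposures of cells grown in 96-well plates, with endpoints linearly interpolated between the two concentrations bracketing the appropriate inhibition level. TGI is the concentration that stops growth completely.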
# Key:
# Experiment in all cases: inhibition of tumour cell growth, NCI panel, 48 h
# [1] = tested on: MALME-3M melanoma
# [2] = tested on: HOP-18 NSCLC
# [3] = tested on: K-562 leukemia
# [4] = tested on: SNB-75 CNS
# [5] = tested on: CCRF-CEM leukemia
# [6] = tested on: HCT-15 colon
# [7] = tested on: RPMI-8226 leukemia
# [8] = tested on: LOX IMVI melanoma
# [9] = tested on: MOLT-4 leukemia
# [10] = tested on: U251 CNS
# [11] = tested on: 786-0 renal
# [12] = tested on: UACC-257 melanoma
# [13] = tested on: HOP-92 NSCLC
# [14] = tested on: SK-OV-3 ovarian
# [15] = tested on: KM12 colon
# [16] = tested on: NCI-H226 lung
# [17] = tested on: M14 melanoma
# [18] = tested on: OVCAR-8 ovarian
# [19] = tested on: SF-268 CNS
# [20] = tested on: CAKI-1 renal
# [21] = tested on: SK-MEL-5 melanoma
# [22] = tested on: DLD-1 colon
# [23] = tested on: A498 renal
# [24] = tested on: DMS 273 small cell lung
# [25] = tested on: OVCAR-5 ovarian
# [26] = tested on: NCI-H460 lung
# [27] = tested on: SNB-19 CNS
# [28] = tested on: HCT-116 colon
# [29] = tested on: HCC-2998 colon
# [30] = tested on: LXFL 529 NSCLC
# [31] = tested on: KM20L2 colon
# [32] = tested on: HL-60(TB) leukemia
# [33] = tested on: SF-295 CNS
# [34] = tested on: EKVX NSCLC
# [35] = tested on: HOP-62 NSCLC
# [36] = tested on: NCI-H522 lung
# [37] = tested on: RXF-631 renal
# [38] = tested on: SNB-78 CNS
# [39] = tested on: TK-10 renal
# [40] = tested on: UO-31 renal
# [41] = tested on: UACC-62 melanoma
# [42] = tested on: SW-620 colon
# [43] = tested on: ACHN renal
# [44] = tested on: SN12C renal
# [45] = tested on: OVCAR-4 ovarian
# [46] = tested on: SF-539 CNS
# [47] = tested on: NCI-H23 lung
# [48] = tested on: A549 NSCLC
# [49] = tested on: M19-MEL melanoma
# [50] = tested on: IGROV1 ovarian
# [51] = tested on: DMS 114 small cell lung
# [52] = tested on: OVCAR-3 ovarian
# [53] = tested on: HT29 colon
# [54] = tested on: SK-MEL-2 melanoma
# [55] = tested on: COLO 205 colon
# [56] = tested on: SK-MEL-28 melanoma
# [57] = tested on: RXF 393 renal
# [58] = tested on: XF 498 CNS
# [59] = tested on: SR leukemia
smiles,measurement,setting,value
N/N=C1\C(=O)N(c2ccc(Cl)cc2Cl)C(=O)C(=O)C1c1nc2ccccc2o1 (stereo not given),TGI,[1],> 100 µM
same,TGI,[2],> 100 µM
same,TGI,[3],> 100 µM
same,TGI,[4],> 100 µM
same,TGI,[5],> 100 µM
same,TGI,[6],> 100 µM
same,TGI,[7],> 100 µM
same,TGI,[8],> 100 µM
same,TGI,[9],> 100 µM
same,TGI,[10],> 100 µM
same,TGI,[11],> 100 µM
same,TGI,[12],> 100 µM
same,TGI,[13],> 100 µM
same,TGI,[14],> 100 µM
same,TGI,[15],> 100 µM
same,TGI,[16],> 100 µM
same,TGI,[17],> 100 µM
same,TGI,[18],> 100 µM
same,TGI,[19],> 100 µM
same,TGI,[20],> 100 µM
same,TGI,[21],> 100 µM
same,TGI,[22],> 100 µM
same,TGI,[23],> 100 µM
same,TGI,[24],> 100 µM
same,TGI,[25],> 100 µM
same,TGI,[26],> 100 µM
same,TGI,[27],> 100 µM
same,TGI,[28],> 100 µM
same,TGI,[29],> 100 µM
same,TGI,[30],> 100 µM
same,TGI,[31],> 100 µM
same,TGI,[32],> 100 µM
same,TGI,[33],> 100 µM
same,TGI,[34],> 100 µM
same,TGI,[35],> 100 µM
same,TGI,[36],> 100 µM
same,TGI,[37],> 100 µM
same,TGI,[38],> 100 µM
same,TGI,[39],> 100 µM
same,TGI,[40],> 100 µM
same,TGI,[41],> 100 µM
same,TGI,[42],> 100 µM
same,TGI,[43],> 100 µM
same,TGI,[44],> 100 µM
same,TGI,[45],> 100 µM
same,TGI,[46],> 100 µM
same,TGI,[47],> 100 µM
same,TGI,[48],> 100 µM
same,TGI,[49],> 100 µM
same,TGI,[50],> 100 µM
same,TGI,[51],> 100 µM
same,TGI,[52],> 100 µM
same,TGI,[53],> 100 µM
same,TGI,[54],> 100 µM
same,TGI,[55],> 100 µM
same,TGI,[56],> 100 µM
CC(=O)OCC(=O)[C@@]12OC(C)(C)O[C@@H]1C[C@H]1[C@@H]3CC(C=O)=C4C=C(OCCCl)CC[C@]4(C)[C@@]3(F)[C@@H](O)C[C@@]12C,TGI,[1],70.3 µM
same,TGI,[2],87.6 µM
same,TGI,[3],> 100 µM
same,TGI,[57],21.6 µM
same,TGI,[5],> 100 µM
same,TGI,[6],> 100 µM
same,TGI,[7],> 100 µM
same,TGI,[8],> 100 µM
same,TGI,[9],> 100 µM
same,TGI,[10],48.5 µM
same,TGI,[11],> 100 µM
same,TGI,[12],80.6 µM
same,TGI,[13],90.2 µM
same,TGI,[14],> 100 µM
same,TGI,[15],> 100 µM
same,TGI,[16],64.8 µM
same,TGI,[17],61.7 µM
same,TGI,[18],> 100 µM
same,TGI,[19],> 100 µM
same,TGI,[22],> 100 µM
same,TGI,[23],57.9 µM
same,TGI,[24],> 100 µM
same,TGI,[25],> 100 µM
same,TGI,[26],88.4 µM
same,TGI,[27],> 100 µM
same,TGI,[28],27.4 µM
same,TGI,[29],29.5 µM
same,TGI,[31],38.2 µM
same,TGI,[32],97.1 µM
same,TGI,[33],46.4 µM
same,TGI,[34],> 100 µM
same,TGI,[35],51.9 µM
same,TGI,[36],92 µM
same,TGI,[58],35.8 µM
same,TGI,[38],68.8 µM
same,TGI,[39],> 100 µM
same,TGI,[40],> 100 µM
same,TGI,[41],> 100 µM
same,TGI,[42],> 100 µM
same,TGI,[43],> 100 µM
same,TGI,[59],> 100 µM
same,TGI,[44],> 100 µM
same,TGI,[45],> 100 µM
same,TGI,[46],80.9 µM
same,TGI,[47],42.2 µM
same,TGI,[48],> 100 µM
same,TGI,[49],> 100 µM
same,TGI,[50],> 100 µM
same,TGI,[51],> 100 µM
same,TGI,[52],> 100 µM
same,TGI,[53],36.8 µM
same,TGI,[54],58.6 µM
same,TGI,[55],34.9 µM
same,TGI,[56],80.1 µM
